# Laboratory results reported in ChEMBL document CHEMBL3525908, “Chronic doxorubicin cardiotoxicity modulates cardiac cytochrome P450-mediated arachidonic acid metabolism in rats” (Drug Metab Dispos, 2012).
# Tests used:
# Rattus norvegicus [1] = assay: Toxicity in Sprague-Dawley rat assessed as CYP4F1 gene expression in liver administered as cumulative dose of 15 mg/kg, ip divided into 6 injections for 2 weeks followed by compound washout period of 14 days by RT-PCR analysis relative to control; assay type: organism-based; parameters: dose 15 mg/kg, route intraperitoneal; conditions: in vivo, 336 h
# Rattus norvegicus [2] = assay: Toxicity in Sprague-Dawley rat assessed as induction of TNF-alpha gene expression in kidney administered as cumulative dose of 15 mg/kg, ip divided into 6 injections for 2 weeks followed by compound washout period of 14 days by RT-PCR analysis relative to control; assay type: organism-based; parameters: dose 15 mg/kg, route intraperitoneal; conditions: 336 h
# Rattus norvegicus [3] = assay: Toxicity in Sprague-Dawley rat assessed as induction of IL-6 gene expression in kidney administered as cumulative dose of 15 mg/kg, ip divided into 6 injections for 2 weeks followed by compound washout period of 14 days by RT-PCR analysis relative to control; assay type: organism-based; parameters: dose 15 mg/kg, route intraperitoneal; conditions: 336 h
# CYP1B1 = assay: Toxicity in Sprague-Dawley rat assessed as induction of CYP1B1 gene expression in kidney administered as cumulative dose of 15 mg/kg, ip divided into 6 injections for 2 weeks followed by compound washout period of 14 days by RT-PCR analysis relative to control; assay type: organism-based; parameters: dose 15 mg/kg, route intraperitoneal
# CYP2J3 = assay: Toxicity in Sprague-Dawley rat assessed as induction of CYP2J3 gene expression in kidney administered as cumulative dose of 15 mg/kg, ip divided into 6 injections for 2 weeks followed by compound washout period of 14 days by RT-PCR analysis relative to control; assay type: organism-based; parameters: dose 15 mg/kg, route intraperitoneal
# CYP4F5 = assay: Toxicity in Sprague-Dawley rat assessed as induction of CYP4F5 gene expression in kidney administered as cumulative dose of 15 mg/kg, ip divided into 6 injections for 2 weeks followed by compound washout period of 14 days by RT-PCR analysis relative to control; assay type: organism-based; parameters: dose 15 mg/kg, route intraperitoneal
# Rattus norvegicus [4] = assay: Toxicity in Sprague-Dawley rat assessed as inhibition of CYP2B2 gene expression in kidney administered as cumulative dose of 15 mg/kg, ip divided into 6 injections for 2 weeks followed by compound washout period of 14 days by RT-PCR analysis relative to control; assay type: organism-based; parameters: dose 15 mg/kg, route intraperitoneal; conditions: in vivo, 336 h
# Rattus norvegicus [5] = assay: Toxicity in Sprague-Dawley rat assessed as CYP2B1 gene expression in kidney administered as cumulative dose of 15 mg/kg, ip divided into 6 injections for 2 weeks followed by compound washout period of 14 days by RT-PCR analysis relative to control; assay type: organism-based; parameters: dose 15 mg/kg, route intraperitoneal; conditions: in vivo, 336 h
# Rattus norvegicus [6] = assay: Toxicity in Sprague-Dawley rat assessed as CYP2C11 gene expression in kidney administered as cumulative dose of 15 mg/kg, ip divided into 6 injections for 2 weeks followed by compound washout period of 14 days by RT-PCR analysis relative to control; assay type: organism-based; parameters: dose 15 mg/kg, route intraperitoneal; conditions: in vivo, 336 h
# Rattus norvegicus [7] = assay: Toxicity in Sprague-Dawley rat assessed as CYP4A1 gene expression in kidney administered as cumulative dose of 15 mg/kg, ip divided into 6 injections for 2 weeks followed by compound washout period of 14 days by RT-PCR analysis relative to control; assay type: organism-based; parameters: dose 15 mg/kg, route intraperitoneal; conditions: in vivo, 336 h
# Rattus norvegicus [8] = assay: Toxicity in Sprague-Dawley rat assessed as CYP4F4 gene expression in kidney administered as cumulative dose of 15 mg/kg, ip divided into 6 injections for 2 weeks followed by compound washout period of 14 days by RT-PCR analysis relative to control; assay type: organism-based; parameters: dose 15 mg/kg, route intraperitoneal; conditions: in vivo, 336 h
# Rattus norvegicus [9] = assay: (§1) Induction of epoxygenase-mediated arachidonic acid metabolism in Sprague-Dawley rat heart microsomes assessed as 20-HETE formation administered as cumulative dose of 15 mg/kg, ip divided into 6 injections for 2 weeks followed by compound washout period of 14 days by LC-ESI-MS analysis relative to control; assay type: ADME, organism-based; parameters: dose 15 mg/kg, route intraperitoneal; conditions: 336 h
# Rattus norvegicus [10] = assay: Cardiotoxicity in Sprague-Dawley rat assessed as increase in sEH activity in heart microsomes administered as cumulative dose of 15 mg/kg, ip divided into 6 injections for 2 weeks followed by compound washout period of 14 days by RT-PCR analysis relative to control; assay type: toxicity, organism-based; parameters: dose 15 mg/kg, route intraperitoneal; conditions: 336 h
# H9c2 [11] = assay: Cytotoxicity against rat H9c2 cells assessed as reduction in ANP mRNA expression at 1 uM after 6 hrs in presence of t-AUCB; assay type: cell-based; conditions: h9c2, 6 h
# H9c2 [12] = assay: Cytotoxicity against rat H9c2 cells assessed as reduction in ANP mRNA expression at 1 uM after 6 hrs in presence of HET0016; assay type: cell-based; conditions: h9c2, 6 h
# CYP450 = assay: as §1, with “CYP450-mediated” for “epoxygenase-mediated”, “11,12-DHET” for “20-HETE”; assay type: ADME, organism-based; parameters: dose 15 mg/kg, route intraperitoneal; conditions: probe arachidonic acid
# Rattus norvegicus [13] = assay: as §1, with “CYP450-mediated” for “epoxygenase-mediated”, “14,15-DHET” for “20-HETE”; assay type: ADME, organism-based; parameters: dose 15 mg/kg, route intraperitoneal; conditions: 336 h
# CYP1A2 = assay: Toxicity in Sprague-Dawley rat assessed as induction of CYP1A2 gene expression in liver administered as cumulative dose of 15 mg/kg, ip divided into 6 injections for 2 weeks followed by compound washout period of 14 days by RT-PCR analysis relative to control; assay type: organism-based; parameters: dose 15 mg/kg, route intraperitoneal
# Rattus norvegicus [14] = assay: Toxicity in Sprague-Dawley rat assessed as CYP2E1 gene expression in liver administered as cumulative dose of 15 mg/kg, ip divided into 6 injections for 2 weeks followed by compound washout period of 14 days by RT-PCR analysis relative to control; assay type: organism-based; parameters: dose 15 mg/kg, route intraperitoneal; conditions: in vivo, 336 h
# Rattus norvegicus [15] = assay: Toxicity in Sprague-Dawley rat assessed as CYP2J3 gene expression in liver administered as cumulative dose of 15 mg/kg, ip divided into 6 injections for 2 weeks followed by compound washout period of 14 days by RT-PCR analysis relative to control; assay type: organism-based; parameters: dose 15 mg/kg, route intraperitoneal; conditions: in vivo, 336 h
# Rattus norvegicus [16] = assay: Toxicity in Sprague-Dawley rat assessed as CYP4A1 gene expression in liver administered as cumulative dose of 15 mg/kg, ip divided into 6 injections for 2 weeks followed by compound washout period of 14 days by RT-PCR analysis relative to control; assay type: organism-based; parameters: dose 15 mg/kg, route intraperitoneal; conditions: in vivo, 336 h
# Rattus norvegicus [17] = assay: Toxicity in Sprague-Dawley rat assessed as CYP4A3 gene expression in liver administered as cumulative dose of 15 mg/kg, ip divided into 6 injections for 2 weeks followed by compound washout period of 14 days by RT-PCR analysis relative to control; assay type: organism-based; parameters: dose 15 mg/kg, route intraperitoneal; conditions: in vivo, 336 h
# Rattus norvegicus [18] = assay: Cardiotoxicity in Sprague-Dawley rat assessed as increase in p53 gene expression level administered as cumulative dose of 15 mg/kg, ip divided into 6 injections for 2 weeks followed by compound washout period of 14 days by RT-PCR analysis relative to control; assay type: toxicity, organism-based; parameters: dose 15 mg/kg, route intraperitoneal; conditions: in vivo, 336 h
# Rattus norvegicus [19] = assay: Cardiotoxicity in Sprague-Dawley rat assessed as increase in ANP gene expression level administered as cumulative dose of 15 mg/kg, ip divided into 6 injections for 2 weeks followed by compound washout period of 14 days by RT-PCR analysis relative to control; assay type: toxicity, organism-based; parameters: dose 15 mg/kg, route intraperitoneal; conditions: 336 h
# Rattus norvegicus [20] = assay: Cardiotoxicity in Sprague-Dawley rat assessed as increase in alpha-MHC gene expression level administered as cumulative dose of 15 mg/kg, ip divided into 6 injections for 2 weeks followed by compound washout period of 14 days by RT-PCR analysis relative to control; assay type: toxicity, organism-based; parameters: dose 15 mg/kg, route intraperitoneal; conditions: in vivo, 336 h
# Rattus norvegicus [21] = assay: Cardiotoxicity in Sprague-Dawley rat assessed as increase in CYP2B1 gene expression level administered as cumulative dose of 15 mg/kg, ip divided into 6 injections for 2 weeks followed by compound washout period of 14 days by RT-PCR analysis relative to control; assay type: toxicity, organism-based; parameters: dose 15 mg/kg, route intraperitoneal; conditions: in vivo, 336 h
# CYP4F1 = assay: Cardiotoxicity in Sprague-Dawley rat assessed as increase in CYP4F1 gene expression level administered as cumulative dose of 15 mg/kg, ip divided into 6 injections for 2 weeks followed by compound washout period of 14 days by RT-PCR analysis relative to control; assay type: toxicity, organism-based; parameters: dose 15 mg/kg, route intraperitoneal; conditions: heart
smiles,measurement,setting,value
COc1cccc2c1C(=O)c1c(O)c3c(c(O)c1C2=O)C[C@@](O)(C(=O)CO)C[C@@H]3O[C@H]1C[C@H](N)[C@H](O)[C@H](C)O1 [DOXORUBICIN],Activity,Rattus norvegicus [1],Non-toxic
same,fold induction at 15 mg/kg,Rattus norvegicus [2],2.9
same,fold induction at 15 mg/kg,Rattus norvegicus [3],4.7
same,fold induction at 336 h,CYP1B1,1.8
same,fold induction at 336 h,CYP2J3,1.6
same,fold induction at 336 h,CYP4F5,1.7
same,Ratio,Rattus norvegicus [4],0.74
same,Activity,Rattus norvegicus [5],Non-toxic
same,Activity,Rattus norvegicus [6],Non-toxic
same,Activity,Rattus norvegicus [7],Non-toxic
same,Activity,Rattus norvegicus [8],Non-toxic
same,Activity,Rattus norvegicus [9],Toxic
same,Ratio,Rattus norvegicus [10],1.6
same,Activity,H9c2 [11],Toxic
same,Activity,H9c2 [12],Toxic
same,fold induction at 336 h,CYP450,1.9
same,Ratio,Rattus norvegicus [13],1.3
same,fold induction at 336 h,CYP1A2,1.9
same,Activity,Rattus norvegicus [14],Non-toxic
same,Activity,Rattus norvegicus [15],Non-toxic
same,Activity,Rattus norvegicus [16],Non-toxic
same,Activity,Rattus norvegicus [17],Non-toxic
same,Ratio,Rattus norvegicus [18],1.7
same,fold induction at 15 mg/kg,Rattus norvegicus [19],3.5
same,Ratio,Rattus norvegicus [20],1.6
same,Activity,Rattus norvegicus [21],Non-toxic
same,fold induction at 336 h,CYP4F1,1.6
